The values below come from patent US20260216134A1, “CHARGED PI-CONJUGATED MOLECULES FOR THE TREATMENT OF MICROBIAL INFECTIONS” (priority 2023, published 2026).

Format in all cases: cell-based, human
A short description of data set [1]: Crystal violet cytotoxicity test in A375 cells without light activation. The following applies: human. On the procedure: (§1) The inhibitory concentration of charged pi-conjugated compounds needed to inhibit the cell growth by 50% (toxicity IC50).
(§2) Most of the charged pi-conjugated compounds are aminocyanines which are functionalized with alkyl amine group. The charged pi-conjugated compounds were added to cell cultures of A375 cancer cells (human melanoma) and their cytotoxicity was quantified by the crystal violet test and/or clonogenic assays for cell viability. […] The longer the exposure the most cytotoxic the charged pi-conjugated compounds are towards A375 cells. […] The same behavior is observed: the longer the exposure, the more cytotoxic. All molecules presented here are aminocyanines except GL-261-2 which is a carboxyl-cyanine. […] This was the first time a therapeutic window of concentration that can be tuned to selectively kill cancer and/or protect cells was suspected. In finding this therapeutic window concentration and time of exposure are important variables that should be fine tuned.
(§3) Based on the finding described above, a larger set of charged pi-conjugated compounds was evaluated for cytotoxicity against A375 cancer cells as shown in FIG. 25 and FIG. 26.
(§4) The IC50 is the concentration needed to inhibit the cell viability by 50%. These molecules in FIG. 25 and FIG. 26 were evaluated by crystal violet assay and using 2 days of exposure.

The test system of data set [2] is A375 cancer cells (melanoma). Described as above. The method, then: as §1, §2, §3, §4
A short description of data set [3]: Clonogenic assay cytotoxicity in A375 cells without light. The following applies: human. The method, then:
FIGS. 28A-28B provide a summary of the evidence of the cytotoxicity of charged pi-conjugated compounds without light. Toxicity was measured using clonogenic assay with 7 hours of incubation (contact time between molecules and A375 cells) and 7 days for colony formation. (FIG. 28A) The lethal concentration of the cyanine molecules to kill 50% of the A375 cells (Tox LC50) without light activation. (FIG. 28B) Chemical structure of exemplary charged pi-conjugated compounds. On average, 300 cells equal to 300 colonies were seeded and analyzed for each data point.
Both properties were measured using clonogenic assay with 7 hours of incubation (contact time between molecules and A375 cells) and 7 days for colony formation. 300 cells were seeded and analyzed for each data point.
More cytotoxicity tests were conducted in some additional molecules and using clonogenic assay for cell viability (FIG. 28). A375 cells were exposed to charged pi-conjugated compounds for 7 hours, in contrast to the previously presented assays which were conducted with crystal violet assay and 2 days of exposure. The data points showing the cytotoxicity quantification for each individual molecule are presented in FIG. 29, with resulting IC50 values summarized in Table 4.

Setting [4] is: crystal violet assay, 2 days of exposure, without light activation, read-out: IC50 (μM), cytotoxicity to A375 cancer cells.
Where [5] appears, read: clonogenic assay, 7 hours of exposure, 7 days colony formation, without light, read-out: IC50 (μM), cytotoxicity to A375 cancer cells.

Molecules are shown by their SMILES. Where two headings read alike, the source gives them in different places.

As usually defined, the IC50 is the concentration needed to halve the response being measured. On to `CN(C)CCCCCCN1/C(=C/C=C2C=C(/C=C/C3=[N+](CCCCCCN(C)C)c4ccc5ccccc5c4C3(C)C)CCC/2)C(C)(C)c2c1ccc1ccccc21.[Br-]` [BL-142, 3-(6-(dimethylamino)hexyl)-2-((E)-2-((E)-3-((E)-2-(3-(6-(dimethylamino)hexyl)-1,1-dimethyl-1,3-dihydro-2H-benzo[e]indol-2-ylidene)ethylidene)cyclohex-1-en-1-yl)vinyl)-1,1-dimethyl-1H-benzo[e]indol-3-ium], for which the concentration for half-maximal inhibition (IC50) at 2 days in data set [1] stood at 2.5 µM. The “cytotoxicity at long exposure” value in data set [2] is “showed cytotoxicity”.

In the case of `CN1/C(=C/C=C2C=C(/C=C/C3=[N+](CCCCCC(=O)O)c4ccc5ccccc5c4C3(C)C)CCC/2)C(C)(C)c2c1ccc1ccccc21` [BL-242, 3-(5-carboxypentyl)-1,1-dimethyl-2-((E)-2-((E)-3-((E)-2-(1,1,3-trimethyl-1,3-dihydro-2H-benzo[e]indol-2-ylidene)ethylidene)cyclohex-1-en-1-yl)vinyl)-1H-benzo[e]indol-3-ium], in data set [3], the IC50 at 7 h worked out at 2 µM.

Consider `COC(=O)CCCCCN1/C(=C/C=C2C=C(/C=C/C3=[N+](CCCCCC(=O)OC)c4ccc5ccccc5c4C3(C)C)CCC/2)C(C)(C)c2c1ccc1ccccc21` [BL-246-1, 3-(6-methoxy-6-oxohexyl)-2-((E)-2-((E)-3-((E)-2-(3-(6-methoxy-6-oxohexyl)-1,1-dimethyl-1,3-dihydro-2H-benzo[e]indol-2-ylidene)ethylidene)cyclohex-1-en-1-yl)vinyl)-1,1-dimethyl-1H-benzo[e]indol-3-ium], for which half-maximal inhibition in data set [3] (IC50 at 7 h) was put at 0.6 µM.

The molecule `C[N+]1=C(C=CC=CC=C2N(CCCCCC(=O)NCCCCCCN)c3ccccc3C2(C)C)C(C)(C)c2ccccc21` [Cy5-amine] came in with an IC50 in data set [2] of 8000 nM.

In the case of `CN1/C(=C/C=C/C=C/C=C/C2=[N+](C)c3ccc4ccccc4c3C2(C)C)C(C)(C)c2c1ccc1ccccc21` [GL-176], the IC50 in data set [2] was 250 nM.

For `CN1/C(=C/C=C/C=C/C=C/C2=[N+](CCCCCC(=O)O)c3ccc4ccccc4c3C2(C)C)C(C)(C)c2c1ccc1ccccc21` [GL-261-2], the IC50 at 2 days in data set [1] (setting [4]) came to 2 µM. In data set [2] (A375, exposure ~30-50 min), the “cytotoxicity at short exposure” value is “safe and showed low cytotoxicity”. Moreover, the “effect toward A375 cells at short exposure” value in data set [2] (~50 min exposure, 1-4 μM) is “protective effect”. Besides, the IC50 at 7 h in data set [3] (setting [5]) turned out to be 5 µM.

Take `CN1/C(=C/C=C/C=C/C=C/C2=[N+](CCCCCCN)c3ccc4ccccc4c3C2(C)C)C(C)(C)c2c1ccc1ccccc21` [GL-286]: the IC50 at 2 days in data set [1] (setting [4]) was found to be 2.88 µM. Further, the “cell viability at short incubation and low concentration” value in data set [2] (1 day incubation, concentrations below 1 μM) is recorded as “can increase the cell viability”. The “cytotoxicity at long exposure” value in data set [2] (A375, 1 day vs 2 days exposure) is on record as “showed cytotoxicity”. For the same molecule, the IC50 at 7 h in data set [3] (setting [5]) was 1 µM.

Consider `CN(C)CCCCCC[N+]1=C(/C=C/C=C/C=C/C=C2/N(C)c3ccc4ccccc4c3C2(C)C)C(C)(C)c2c1ccc1ccccc21` [GL-291-2], for which, in data set [1], the midpoint of inhibition, the IC50 at 2 days, lay at 1.5 µM. Also, in data set [2], the “cytotoxicity at long exposure” value is reported as “showed cytotoxicity”.

In data set [1], `COC(=O)C(/C=C/C=C1/N(C)c2ccc3ccccc3c2C1(C)C)=C(C)\C=C\C1=[N+](CCCCCCN(C)C)c2ccc3ccccc3c2C1(C)C` [GL-297-2] showed an IC50 at 2 days of 1 µM. Further, the IC50 at 7 h in data set [3] was 0.45 µM.

Consider `CN(C)CC[N+]1=C(/C=C/C=C/C=C/C=C2/N(C)c3ccc4ccccc4c3C2(C)C)C(C)(C)c2c1ccc1ccccc21` [GL-308-2], for which the midpoint of inhibition in data set [1], the IC50 at 2 days, lay at 0.5 µM.

Take `CN1/C(=C/C=C/C=C/C=C/C2=[N+](CCCCCC[N+](C)(C)C)c3ccc4ccccc4c3C2(C)C)C(C)(C)c2c1ccc1ccccc21` [GL-328-2]: 7 µM corresponded to half-maximal inhibition in data set [1] (IC50 at 2 days).

As for `CN(C)CC[N+]1=C(/C=C/C2=CC(=C/C=C3/N(C)c4ccc5ccccc5c4C3(C)C)/CC(C(C)(C)C)C2)C(C)(C)c2c1ccc1ccccc21` (stereo not shown) [GL-349-2], in data set [1], the IC50 at 2 days came out at 0.3 µM.

Molecule `CC(=O)NCCCCCC[N+]1=C(/C=C/C=C/C=C/C=C2/N(C)c3ccc4ccccc4c3C2(C)C)C(C)(C)c2c1ccc1ccccc21` [GL-362-2] had an IC50 at 7 h in data set [3] of 0.19 µM.
